SMILES strings stand for the structures.

The assay addresses T1, Cytochrome P450 4A4 (Oryctolagus cuniculus, UniProt P10611).
T1 sequence (P10611 whole entry): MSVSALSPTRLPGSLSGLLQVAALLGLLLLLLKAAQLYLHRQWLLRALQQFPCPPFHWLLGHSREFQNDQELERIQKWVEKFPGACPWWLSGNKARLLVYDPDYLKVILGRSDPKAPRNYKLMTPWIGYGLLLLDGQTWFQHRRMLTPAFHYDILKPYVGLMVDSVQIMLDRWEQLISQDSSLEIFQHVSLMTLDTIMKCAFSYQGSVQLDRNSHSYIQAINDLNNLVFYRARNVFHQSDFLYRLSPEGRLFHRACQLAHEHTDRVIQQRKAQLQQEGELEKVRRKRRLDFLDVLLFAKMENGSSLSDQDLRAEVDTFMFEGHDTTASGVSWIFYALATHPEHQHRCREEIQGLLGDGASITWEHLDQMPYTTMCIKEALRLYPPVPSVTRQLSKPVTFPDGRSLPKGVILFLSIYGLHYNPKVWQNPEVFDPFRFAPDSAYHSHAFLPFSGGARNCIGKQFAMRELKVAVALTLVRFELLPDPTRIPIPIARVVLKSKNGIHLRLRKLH
Put plainly: Inactivation of prostaglandin E1 omega-hydroxylase (Cytochrome P450 4A4) in rabbit lung. Type of assay: tissue-based.
As to `C#CCCC[C@@H](O)CCCCCCCCCCC(=O)O`, the Ki amounted to 1.8 µM.

In turn, `C#CCCCC(O)CCCCCCCCCC(C)(C)C(=O)O` (centres undefined) displayed a Ki of 4.9 µM.

Compound `C#CCCC[C@H](O)CCCCCCCCCCC(=O)O` came in with a Ki of 3.6 µM.

On to `C#CCCCC(O)CCCCCCCCCCC(=O)O` (racemic), for which the Ki worked out at 4.8 µM.

(Values after ChEMBL document CHEMBL1126932, “Mechanism-based inhibitors of prostaglandin omega-hydroxylase: (R)- and (S)-12-hydroxy-16-heptadecynoic acid and 2,2-dimethyl-12-hydroxy-16-heptadecynoic acid” (J Med Chem, 1993).)
